Activity calls are given as the source filed them.

Assay [1] concerns the target Voltage-dependent T-type calcium channel subunit alpha-1H (Homo sapiens, UniProt O95180). The assay can be described thus: inhibition of CACNA1H calcium flux – cell-based, SynthLib3 library, HEK293 Cav3.2, fluorescence (AID 493041). It counts as functional. Background: Calcium flux is commonly read through the fluorescence of an indicator in the cells.
The target of assay [2] is T1, Tyrosine-protein phosphatase non-receptor type 7 (Homo sapiens, UniProt P35236).
T1 sequence (P35236 whole entry): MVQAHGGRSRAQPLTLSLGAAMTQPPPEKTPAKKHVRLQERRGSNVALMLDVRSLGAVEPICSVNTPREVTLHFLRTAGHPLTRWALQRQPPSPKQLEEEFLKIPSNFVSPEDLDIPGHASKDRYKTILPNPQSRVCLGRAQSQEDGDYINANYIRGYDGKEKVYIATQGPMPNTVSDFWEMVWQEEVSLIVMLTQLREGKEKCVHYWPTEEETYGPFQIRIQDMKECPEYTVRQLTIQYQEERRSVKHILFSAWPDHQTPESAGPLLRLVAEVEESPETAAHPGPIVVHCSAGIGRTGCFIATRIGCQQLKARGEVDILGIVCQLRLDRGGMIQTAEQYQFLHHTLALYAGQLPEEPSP
It counts as functional.

For assay [3], the target named is Glyceraldehyde-3-phosphate dehydrogenase (Homo sapiens, UniProt P04406).
Chain of Glyceraldehyde-3-phosphate dehydrogenase (P04406 whole entry): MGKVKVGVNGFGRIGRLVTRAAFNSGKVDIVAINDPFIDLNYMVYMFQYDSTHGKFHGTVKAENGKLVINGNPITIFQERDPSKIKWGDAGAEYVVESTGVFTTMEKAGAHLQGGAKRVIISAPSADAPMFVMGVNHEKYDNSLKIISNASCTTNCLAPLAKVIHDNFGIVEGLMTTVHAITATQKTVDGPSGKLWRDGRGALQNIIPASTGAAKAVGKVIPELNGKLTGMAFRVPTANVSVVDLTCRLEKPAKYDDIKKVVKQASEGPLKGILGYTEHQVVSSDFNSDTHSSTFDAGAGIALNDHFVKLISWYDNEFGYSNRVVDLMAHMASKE
In assay [4] the target is T2, Dual specificity protein phosphatase 6 (Rattus norvegicus, UniProt Q64346).
T2 sequence (Q64346 whole entry): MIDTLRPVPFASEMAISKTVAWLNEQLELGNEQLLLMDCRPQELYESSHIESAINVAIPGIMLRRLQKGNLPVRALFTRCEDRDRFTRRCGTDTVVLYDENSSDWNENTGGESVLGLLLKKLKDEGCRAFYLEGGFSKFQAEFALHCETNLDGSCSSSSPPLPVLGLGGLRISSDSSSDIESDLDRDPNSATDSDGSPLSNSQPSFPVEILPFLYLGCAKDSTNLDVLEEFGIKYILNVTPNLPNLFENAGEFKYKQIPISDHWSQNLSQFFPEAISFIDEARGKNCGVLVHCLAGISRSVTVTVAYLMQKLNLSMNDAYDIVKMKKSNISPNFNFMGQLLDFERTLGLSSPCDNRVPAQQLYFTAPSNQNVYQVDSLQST

For assay [5], the target named is T2, Dual specificity protein phosphatase 6. It counts as functional.
Assay [6] concerns the target Kappa-type opioid receptor (Homo sapiens, UniProt P41145). The assay can be described thus: SAR analysis of small molecule agonists of the kappa opioid receptor via a luminescent beta-arrestin assay - Set 3. [Related pubchem assays (depositor defined):AID1777, AID1785, AID1786, AID1966, AID2133, AID2136, AID2284, AID2500]. It counts as functional.
Assay [7] deals with T3, G-protein coupled receptor 55 (Homo sapiens, UniProt Q9Y2T6). Description: inhibition of LPI-stimulated GPR55 beta-arrestin translocation – imaging, U2OS, beta-arrestin-GFP, LPI agonist, primary screen (AID 2013).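 Further: antagonist potency measured as reduced agonist-driven arrestin aggregation.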 It counts as functional.
T3 sequence (Q9Y2T6 whole entry): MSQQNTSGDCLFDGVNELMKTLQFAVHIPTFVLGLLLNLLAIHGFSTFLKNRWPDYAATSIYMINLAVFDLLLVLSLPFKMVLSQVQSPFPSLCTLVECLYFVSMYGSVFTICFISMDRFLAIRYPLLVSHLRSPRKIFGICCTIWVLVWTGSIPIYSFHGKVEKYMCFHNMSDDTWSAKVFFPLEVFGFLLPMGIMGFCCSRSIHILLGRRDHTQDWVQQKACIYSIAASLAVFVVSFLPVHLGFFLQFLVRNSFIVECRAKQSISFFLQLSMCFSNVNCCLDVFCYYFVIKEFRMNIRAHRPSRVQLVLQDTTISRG
The target of assay [8] is T4, Cannabinoid receptor 1 (Homo sapiens, UniProt P21554). Description: SAR analysis of antagonists of the Cannabinoid Receptor 1 using an Image-Based Assay - Set 2. [Related pubchem assays (depositor defined):AID2013, AID2026]. It counts as functional.
T4 sequence (P21554 whole entry): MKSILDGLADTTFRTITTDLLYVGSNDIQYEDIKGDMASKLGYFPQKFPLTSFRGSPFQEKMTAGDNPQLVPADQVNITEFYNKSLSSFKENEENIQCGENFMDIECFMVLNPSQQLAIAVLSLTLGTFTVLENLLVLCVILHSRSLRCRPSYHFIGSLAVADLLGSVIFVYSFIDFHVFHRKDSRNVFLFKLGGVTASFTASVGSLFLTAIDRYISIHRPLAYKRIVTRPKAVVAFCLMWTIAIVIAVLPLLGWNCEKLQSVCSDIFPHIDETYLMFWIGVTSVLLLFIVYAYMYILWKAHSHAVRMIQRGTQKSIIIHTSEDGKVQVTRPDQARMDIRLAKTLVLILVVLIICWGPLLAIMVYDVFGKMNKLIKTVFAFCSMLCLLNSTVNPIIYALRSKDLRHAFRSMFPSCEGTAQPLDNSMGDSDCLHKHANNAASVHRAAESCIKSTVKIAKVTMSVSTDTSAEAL
The target of assay [9] is T5, G-protein coupled receptor 35 (Homo sapiens, UniProt Q9HC97). The assay can be described thus: SAR analysis of Agonists of the GPR35 Receptor using an Image-Based Assay - Set 2. [Related pubchem assays (depositor defined):AID2013, AID2026]. It counts as functional.
T5 sequence (Q9HC97 whole entry): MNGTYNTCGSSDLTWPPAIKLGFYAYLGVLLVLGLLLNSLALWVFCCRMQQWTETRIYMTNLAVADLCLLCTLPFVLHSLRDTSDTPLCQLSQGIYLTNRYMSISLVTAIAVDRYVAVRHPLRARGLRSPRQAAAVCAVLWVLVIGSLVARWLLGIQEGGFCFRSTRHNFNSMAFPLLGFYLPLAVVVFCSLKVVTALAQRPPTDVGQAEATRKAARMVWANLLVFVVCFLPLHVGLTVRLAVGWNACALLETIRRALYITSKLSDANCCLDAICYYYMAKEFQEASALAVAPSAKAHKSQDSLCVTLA
The target in assay [10] is T6, Cannabinoid receptor 2 (Homo sapiens, UniProt P34972). Description: SAR analysis of antagonists of the Cannabinoid Receptor 2 using an Image-Based Assay. [Related pubchem assays (depositor defined):AID2013, AID2026]. It counts as functional.
T6 sequence (P34972 whole entry): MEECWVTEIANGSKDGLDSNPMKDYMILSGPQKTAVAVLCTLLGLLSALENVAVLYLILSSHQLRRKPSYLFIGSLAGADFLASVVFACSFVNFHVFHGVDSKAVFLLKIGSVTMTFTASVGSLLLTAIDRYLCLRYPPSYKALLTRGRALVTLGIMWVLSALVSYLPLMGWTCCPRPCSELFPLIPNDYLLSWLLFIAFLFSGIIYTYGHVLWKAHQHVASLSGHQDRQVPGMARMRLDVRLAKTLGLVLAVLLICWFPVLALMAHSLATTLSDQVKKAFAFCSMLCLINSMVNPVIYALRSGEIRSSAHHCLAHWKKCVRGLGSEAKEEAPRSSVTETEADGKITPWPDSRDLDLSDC
Assay [11] has as its target T4, Cannabinoid receptor 1. Description: SAR analysis of agonists of the Cannabinoid Receptor 1 using an Image-Based Assay - Set 2. [Related pubchem assays (depositor defined):AID2013, AID2026]. It counts as functional.
Assay [12] deals with T5, G-protein coupled receptor 35. Description: SAR analysis of Antagonists of the GPR35 Receptor using an Image-Based Assay - Set 3. [Related pubchem assays (depositor defined):AID2013, AID2026]. It counts as functional.
Assay [13] concerns the target T3, G-protein coupled receptor 55. The assay can be described thus: blockade of LPI-induced GPR55 arrestin translocation – imaging, U2OS, beta-arrestin-GFP, LPI agonist, set 2, SAR follow-up (AID 2820). It counts as functional.
Assay [14] concerns the target T6, Cannabinoid receptor 2. The assay can be described thus: SAR analysis of agonists of the Cannabinoid Receptor 2 using an Image-Based Assay. [Related pubchem assays (depositor defined):AID2013, AID2026]. It counts as functional.

Chain of Kappa-type opioid receptor (P41145 whole entry): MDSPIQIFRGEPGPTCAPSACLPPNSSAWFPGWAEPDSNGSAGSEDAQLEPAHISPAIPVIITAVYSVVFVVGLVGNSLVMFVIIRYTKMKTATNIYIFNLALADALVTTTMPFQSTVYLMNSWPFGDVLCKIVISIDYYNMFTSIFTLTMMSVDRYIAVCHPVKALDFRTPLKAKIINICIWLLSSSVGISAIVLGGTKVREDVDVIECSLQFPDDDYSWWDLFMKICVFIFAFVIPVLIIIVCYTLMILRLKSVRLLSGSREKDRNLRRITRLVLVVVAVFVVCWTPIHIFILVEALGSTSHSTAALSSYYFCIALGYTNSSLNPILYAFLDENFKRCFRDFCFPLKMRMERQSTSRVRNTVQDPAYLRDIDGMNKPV
Chain of Voltage-dependent T-type calcium channel subunit alpha-1H (O95180 whole entry): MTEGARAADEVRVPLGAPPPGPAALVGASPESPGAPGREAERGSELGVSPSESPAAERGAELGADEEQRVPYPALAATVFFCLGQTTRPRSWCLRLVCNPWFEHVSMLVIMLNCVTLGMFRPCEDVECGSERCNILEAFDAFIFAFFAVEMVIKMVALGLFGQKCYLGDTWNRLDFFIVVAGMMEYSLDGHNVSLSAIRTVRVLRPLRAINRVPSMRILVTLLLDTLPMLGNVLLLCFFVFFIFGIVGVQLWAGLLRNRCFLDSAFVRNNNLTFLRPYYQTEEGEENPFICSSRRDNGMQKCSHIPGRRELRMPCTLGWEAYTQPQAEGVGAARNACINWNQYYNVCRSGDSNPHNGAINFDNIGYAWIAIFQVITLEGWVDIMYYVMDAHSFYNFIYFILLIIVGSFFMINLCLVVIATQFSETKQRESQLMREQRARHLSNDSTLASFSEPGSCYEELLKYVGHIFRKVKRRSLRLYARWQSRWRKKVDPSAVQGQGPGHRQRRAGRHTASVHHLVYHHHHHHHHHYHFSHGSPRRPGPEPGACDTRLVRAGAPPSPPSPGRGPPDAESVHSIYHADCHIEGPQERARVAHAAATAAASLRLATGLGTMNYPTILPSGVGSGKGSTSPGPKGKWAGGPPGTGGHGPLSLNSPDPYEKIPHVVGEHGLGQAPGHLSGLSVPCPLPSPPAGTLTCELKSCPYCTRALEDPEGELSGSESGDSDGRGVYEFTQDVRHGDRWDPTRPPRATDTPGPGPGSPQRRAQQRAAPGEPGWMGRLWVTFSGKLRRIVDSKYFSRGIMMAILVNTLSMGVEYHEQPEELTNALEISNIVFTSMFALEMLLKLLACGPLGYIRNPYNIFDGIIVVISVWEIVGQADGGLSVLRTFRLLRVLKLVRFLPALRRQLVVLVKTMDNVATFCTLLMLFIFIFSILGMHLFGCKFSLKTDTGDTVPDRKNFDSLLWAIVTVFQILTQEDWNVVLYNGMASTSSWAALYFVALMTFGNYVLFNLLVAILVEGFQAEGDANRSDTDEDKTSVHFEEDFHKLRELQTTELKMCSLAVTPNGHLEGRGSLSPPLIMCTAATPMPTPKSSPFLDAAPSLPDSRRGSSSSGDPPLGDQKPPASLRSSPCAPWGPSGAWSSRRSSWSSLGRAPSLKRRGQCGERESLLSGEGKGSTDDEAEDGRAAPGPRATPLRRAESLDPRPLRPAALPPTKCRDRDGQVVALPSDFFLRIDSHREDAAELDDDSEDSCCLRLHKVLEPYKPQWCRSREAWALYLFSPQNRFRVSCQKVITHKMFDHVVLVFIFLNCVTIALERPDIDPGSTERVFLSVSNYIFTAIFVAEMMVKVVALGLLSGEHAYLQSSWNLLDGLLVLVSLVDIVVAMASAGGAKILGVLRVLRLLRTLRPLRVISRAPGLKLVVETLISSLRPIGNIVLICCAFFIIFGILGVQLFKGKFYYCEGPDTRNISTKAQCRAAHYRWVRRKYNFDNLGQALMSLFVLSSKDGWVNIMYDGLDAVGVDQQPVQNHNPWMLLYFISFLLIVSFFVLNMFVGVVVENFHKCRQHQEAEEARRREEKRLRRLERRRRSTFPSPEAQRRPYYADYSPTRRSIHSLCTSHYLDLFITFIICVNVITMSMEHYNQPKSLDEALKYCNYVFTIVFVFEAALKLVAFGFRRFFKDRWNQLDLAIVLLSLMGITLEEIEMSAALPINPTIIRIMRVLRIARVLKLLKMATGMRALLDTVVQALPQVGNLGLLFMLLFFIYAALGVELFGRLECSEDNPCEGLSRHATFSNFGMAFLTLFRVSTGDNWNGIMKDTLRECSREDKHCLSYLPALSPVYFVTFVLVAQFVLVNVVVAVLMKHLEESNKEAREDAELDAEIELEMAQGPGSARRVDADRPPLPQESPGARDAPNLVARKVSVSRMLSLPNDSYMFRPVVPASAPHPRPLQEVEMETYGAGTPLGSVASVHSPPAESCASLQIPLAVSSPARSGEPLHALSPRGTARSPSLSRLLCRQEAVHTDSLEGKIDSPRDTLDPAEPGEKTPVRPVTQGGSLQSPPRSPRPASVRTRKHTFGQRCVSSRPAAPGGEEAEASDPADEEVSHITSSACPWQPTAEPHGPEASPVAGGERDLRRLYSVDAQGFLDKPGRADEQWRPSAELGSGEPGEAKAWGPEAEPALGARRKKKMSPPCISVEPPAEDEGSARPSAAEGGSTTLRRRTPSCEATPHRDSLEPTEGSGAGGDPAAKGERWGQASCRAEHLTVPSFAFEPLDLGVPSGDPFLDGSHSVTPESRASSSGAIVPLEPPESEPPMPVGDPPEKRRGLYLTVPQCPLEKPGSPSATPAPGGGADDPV

`O=C(COc1ccc(F)c(Cl)c1)N[C@H]1CCCN(CC2CCCC2)C1`: the 50% effective concentration (EC50) (in general, the concentration at which the effect is half-maximal) in assay [1] was 10 µM (active).
Turning to `CCOC(=O)C1Nc2c(OC)cccc2C2OCCCC12` (centres undefined), the IC50 (as a rule, the concentration that inhibits the measured activity by half) in assay [2] was > 100 µM (not active); in assay [3], > 100 µM (not active); in assay [4], > 100 µM (inactive); in assay [5], > 100 µM (inactive).
As to `FC(F)(F)c1cc(CSc2nnc(-c3ccccn3)n2Cc2cccnc2)ccc1Cl`, in assay [6], the EC50 is 0.501 µM (active).
For `Cc1cccc2c1NC(=O)C2(c1ccc(O)cc1)c1ccc(O)cc1`, the IC50 in assay [7] was 2.53 µM (active); on Cannabinoid receptor 1 [8], 31.3 µM (inactive); on Cannabinoid receptor 2 [10], > 32 µM (inactive); in assay [12], 7.66 µM (active); in [13] it was 0.125 µM (active). In addition, the EC50 (in assay [9]; on Cannabinoid receptor 1 [11]; on Cannabinoid receptor 2 [14]) was > 32 µM (inactive) in each case.

The values are drawn from ChEMBL document CHEMBL1201862, “PubChem BioAssay data set” (2004).
